Experimental data taken from PubChem BioAssay (NCI).
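Compound exposure: 48 hours, 5 concentrations, 96-well plates. At the GI50, growth is halved. TGI: total growth inhibition.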 Where a SMILES comes first, the peptide text is derived from it. The star is where a group is joined. Trt = c1ccc(C(c2ccccc2)(c2ccccc2)*)cc1; Cbz = O=C(OCc1ccccc1)*

tested on: HOP-92 NSCLC; assay: DTP human tumour cell line panel, 48 h

Row | Molecule | TGI | GI50
1 | CC(=O)c1c2c(cc3c1CC1(C3)Cc3cc4c(c(C(=O)O)c3C1)CCC4)CCC2 (stereo unspecified) | 81.2 µM | 
2 | Cc1ccc(/C=N/NS(=O)(=O)c2ccccc2)c(C)c1 | > 100 µM | 
3 | C#CCOCn1cnc2ncnc(N)c21 | > 100 µM | 
4 | Cc1noc(/N=C2\C=C(Nc3onc(C)c3C)C(=O)c3ccccc32)c1C | > 100 µM | 
5 | CCCN1CCC=C(c2ccc(Nc3nc(Nc4ccccc4C(N)=O)c4cc[nH]c4n3)c(C)c2)C1 | 2.04 µM | 0.158 µM

tested on: K-562 leukemia; assay: DTP human tumour cell line panel, 48 h

Row | Molecule | TGI | GI50
6 | CC1=C(N2CC2)C(=O)c2ccccc2C1=O | 3.5 µM | 
7 | H-QIYKKYRTWYRKAWKVLGKV-NH2 | > 100 µM | 3.21 µM
8 | O=S1(=O)c2ccccc2N=C(c2ccccc2Cl)CC1c1ccc(F)cc1 (stereo unspecified) | 34.6 µM | 
9 | CC1=CC(=O)NP(=O)(C23CC4CC(CC(C4)C2)C3)N1 (stereo unspecified) | > 100 µM | 
10 | COc1cc(/C=N/NC(=O)c2ccccc2Nc2cccc(C(F)(F)F)c2)cc(OC)c1OC | > 37.2 µM | 2.52 µM
11 | O=c1[nH]cc(C(F)(C(F)(F)F)C(F)(F)F)c(=O)[nH]1 | > 100 µM | 
12 | COc1ccc2c(c1)c1c3n2CCNN=C3CCC1 | > 100 µM | 
13 | CC(=O)[C-](C(C)=O)c1ccccc1.CC(=O)[C-](C(C)=O)c1ccccc1.CC(=O)[C-](C(C)=O)c1ccccc1.[Cl-].[Zr+4] | > 100 µM | > 100 µM
14 | CC(C)N1C(C)[C@@H](c2ccccc2)O[P@]1(=O)CC1=CCCCC1 (stereo partly specified) | > 100 µM | 
15 | CN=C(N)N/N=C(\C)c1ccc2c(c1)Cc1ccccc1-2 | 2.69 µM | 1.28 µM
16 | COC(=O)C(=O)C(C(=O)C(=O)Nc1cc(Cl)c(Cl)cc1Cl)c1nc2ccc([N+](=O)[O-])cc2[nH]c1=O (stereo unspecified) | > 100 µM | 
17 | COc1ccc(NC(=O)C2C(=O)N(c3ccc(OC)cc3)C(=O)/C2=N\NC(N)=O)cc1 (stereo unspecified) | > 100 µM | 
18 | C/C(=N\NS(=O)(=O)c1ccc([N+](=O)[O-])cc1)c1ccc[n+]([O-])n1 | > 65.4 µM | 
19 | S=c1c2ccccc2c(=S)n2n1CC=CC2 | > 100 µM | 
20 | CC(C)(C)Sc1nnc(SC(C)(C)C)c2c(=O)[nH]nc(SC(C)(C)C)c12 | 26.8 µM | 
21 | COc1cc2c(cc1OCCCOc1ccc(-c3nc4ccc(N5CCN(C)CC5)cc4[nH]3)cc1)N=C[C@@H]1CCCN1C2=O | 0.818 µM | < 0.01 µM
22 | CCCCNC1=C(C(=O)OCC)/C(=N/NC(=O)c2ccccc2O)CO1 | > 100 µM | 
23 | N#CC(C(=O)CCCC(=O)Nc1ccc(Cl)cc1Cl)c1ccc(Cl)cc1 (stereo unspecified) | > 100 µM | 

Row | Molecule | TGI | GI50
24 | O=CCCCC(Sc1ccccc1)Sc1ccccc1 | 76.6 µM | 
25 | COC(=O)/C(=N\Nc1nnc(C)n1N)C(C#N)c1ccccc1 (stereo unspecified) | > 100 µM | 
26 | CNC(c1ccncc1)C(NC)c1ccncc1 (stereo unspecified) | > 100 µM | 
27 | COc1ccc(C)cc1C1CCC(=O)O1 (stereo unspecified) | > 100 µM | 
28 | Cc1ccc2nc(NC(=O)C(=O)CC(=O)c3cccc4ccccc34)sc2c1 | > 100 µM | 
29 | COc1ccc(-c2nc(C(=O)c3ccccc3)n(CC(=O)c3ccc(Cl)cc3)c2-c2ccc(OC)cc2)cc1 | > 100 µM | > 100 µM
30 | O=C1CCC(=O)c2sccc2N1 | > 100 µM | 
31 | COC(=O)C(CSC(c1ccccc1)(c1ccccc1)c1ccccc1)NC(=O)C(CC(N)=O)NC(=O)OCc1ccccc1 (stereo not drawn) (Cbz-Asn-Cys(Trt)-OMe; configuration not given here) | 11.4 µM | 3.16 µM
32 | COc1cccc2c1cc1c3c(cc4c(c32)OCO4)C(=O)N1 | > 100 µM | 8.89 µM
33 | CCCCCCCCCCCCCCCCCC(=O)NCC(COP(=O)(O)O)OCC (stereo unspecified) | > 100 µM | 
34 | CCCOC(=O)C1C2CCC(O2)C1C(=O)O (stereo unspecified) | > 100 µM | 
35 | Cc1cc(Br)cc(C)c1NC(=O)C(=O)Nn1c(=S)[nH]c2ccccc2c1=O | > 100 µM | 
36 | Cn1nc(-c2ccccc2)c(C(=O)/C=C/c2ccc(Cl)cc2)c(N2CCCC2)c1=O | 9.06 µM | 
37 | O=C1C=Cc2ncccc2C1=O | 26.4 µM | 
38 | C/C(CC(=O)Nc1cccc([N+](=O)[O-])c1)=N\NC(=O)CC#N | > 100 µM | 
39 | [CH3][Sn]1([CH3])[O]CC(COc2cc(Cl)c(Cl)cc2Cl)[O]1 (stereo unspecified) | > 100 µM | > 100 µM
40 | O=C(/C=C/c1ccccc1)CCC1C(=O)NC(=S)NC1=O | > 100 µM | 
41 | CCc1cc(Cc2ccc(C)c(NC(=O)C(=O)C3C(=O)NC(=O)NC3=O)c2CC)cc(C)c1NC(=O)C(=O)C1C(=O)NC(=O)NC1=O | > 100 µM | 
